# Legend:
# L. lactis [1] = assay: Membrane potential determination (DiSC3(5) probe); format: cell-based, Lactococcus lactis; conditions: 5× MIC, 10 mM HEPES with 10 mM glucose pH 7.2, 2 μM DiSC3(5), 25 min
# Description: To measure the membrane potential, the membrane potential-sensitive fluorescent dye DiSC3(5) was utilized. L. lactis was cultured to an OD600 of 0.8, pelleted at 5000g for 5 min, and washed twice in 10 mM HEPES with 10 mM glucose (pH 7.2). The cell density was adjusted to an OD600 of 0.2 and loaded with 2 μM DiSC3(5) dye, followed by 20 min of incubation in the dark to stabilize the probe fluorescence. Next, the cell suspension was added to a 96-well microplate and incubated for 5 min with 100 mM KCl. […] The fluorescence spectrometer’s excitation and emission wavelengths were adjusted to 622 and 670 nm, respectively. Three technical replicates were performed, and the representative example is shown.
# [2] = Growth curve-based lipid II/LTA binding assay; format: cell-based, Lactococcus lactis; conditions: L. lactis MG1363, 5 × MIC peptide, 2 µl lipid II, 6 hours, three replicates
# Description: Screening the antibacterial activity of peptides by spot-on-lawn assay
# To prepare the plates, an overnight culture of the strains was added to 0.8% LB agar or GM17agar (wt/vol) at 45 ℃ and mixed to a final concentration of 0.1% (vol/vol) before being poured onto the plates (10 ml each). Next, 5 µl of the precursor peptide and 1 µl of 1 mg/mL NisP were dropped onto the plates and left to dry before incubation. The plates were then incubated overnight at 37°C, except for L. lactis, which was incubated at 30°C.
# Evaluation of (methyl)lanthionine formation
# 16 μL of phosphate-buffered saline (pH 7.4) was added to the samples followed by treatment with 2 μL of 5 mg/mL tris[2-carboxyethyl]phosphine for 30 min at room temperature. Next, 4.5 μL of 25 mg/mL N-ethylmaleimide was added to the samples, which were then incubated at room temperature for 2 h.
# Subsequently, the samples were desalted using a C18 ZipTip (Millipore) according to the manufacturer’s instructions and subjected to MALDI-TOF MS analysis.
# Growth curve and lipid II/LTA binding assay
# Overnight cultures of L. lactis MG1363 were diluted to an OD 600 of 0.05 and added to a 96-well plate, which was incubated at 30°C. […] The growth curve was recorded over the following 6 hours using a microplate spectrophotometer under the same conditions, with three replicates used for each treatment.
# [3] = pH stability by residual antimicrobial activity; format: physicochemical; conditions: residual antimicrobial activity vs L. lactis 1363, agar well, triplicate
# Description: To investigate the impact of proteolytic enzymes, pH, and temperature on the antimicrobial activity, a representative strain of L. lactis 1363 was utilized. For the proteolytic enzyme assay, 40 μL of peptide (1 mg/mL) was incubated with or without final concentrations of 1 mg/mL proteolytic enzymes at room temperature for 3 h, followed by an activity test in the agar well. To determine pH stability, the pH was adjusted to 2, 4, 7, and 10 using 1 M HCl or NaOH. The temperature stability was assessed by incubating the peptide at 22, 50, 70, and 90 °C for a specified duration. All experiments were performed in triplicate.
# Overnight cultures of the test strains were inoculated at a final concentration of 0.1% (v/v) into melted LB agar at 45 °C and then poured onto plates. After solidification, 8 mm wells were created and filled with 40 μL of the lantibiotic solution (1 mg/mL). The lantibiotics were activated by adding 5 μL of NisP directly to the well. The plates were then incubated overnight at 30 °C, and the zone of inhibition was measured. Zone diameters were calculated by subtracting the area of the well (πr^2) from the area of the zone (πr^2) and reported in millimeters. To determine the peptide concentration, purified and lyophilized peptides were resuspended in 0.05% aqueous acetic acid solution and quantified by HPLC following the protocol described by Schmitt et al.[44] All experiments were performed in triplicate.
# E. faecium LMG11423 = format: cell-based, Enterococcus faecium; conditions: LMG11423
# Description: (§1) Each experiment was performed in triplicate.
# [4] = tested on: E. faecium LMG16003 (VRE); format: cell-based, Enterococcus faecium; conditions: LMG16003
# Description: as §1
# [5] = Spot-on-lawn assay, peptide-LTA complex formation; format: binding, Lactococcus lactis; conditions: spot-on-lawn (LTA 1 mg/mL, 2 μL) and growth curves, L. lactis MG1363
# Description: (§2) To evaluate the binding of peptide and lipid II or lipoteichoic acid (LTA), an overnight cultured L. lactis MG1363 was added to 0.8% GM17 (w/v, temperature 45 °C) at a final concentration of 0.1% (v/v), and then, the mixture was poured onto 10 mL plates. The binding of peptide and lipid II or LTA was further evaluated by spotting of purified lipid II (300 μM, 2 μL) or LTA (1 mg/mL, 2 μL) to the edge of the inhibition halo of antibiotics. Briefly, antimicrobials were loaded to the agar plate. After the antimicrobial solution drops had dried, lipid II or LTA was spotted to the edge of inhibition halo of antimicrobials. The plates were then incubated overnight at 30 °C after the drops had dried.
# [6] = Spot-on-lawn assay, peptide-lipid II complex formation; format: binding, Lactococcus lactis; conditions: L. lactis MG1363, purified lipid II 300 μM, 2 μL at edge of halo, overnight 30 °C
# Description: as §2
# [7] = tested on: E. faecalis LMG16216 (VRE); format: cell-based, Enterococcus faecalis; conditions: LMG16216
# Description: as §1
# Bacillus cereus CH-85 = format: cell-based; conditions: CH-85
# Description: as §1
# L. lactis [8] = assay: Fluorescence microscopy assay of membrane integrity (SYTO 9 / propidium iodide); format: cell-based, Lactococcus lactis; conditions: 5× MIC, 15 min / 20 min (method), room temperature
# Description: L. lactis was cultured until it reached an OD600 of 0.8 and then pelleted at 8000g for 5 min and washed three times in 0.7% NaCl. The cell density was normalized to an OD600 of 0.4 in 0.7% NaCl, and a concentration of 5-fold MIC value of each tested antibiotic was added to the cell suspension simultaneously with SYTO 9 and propidium iodide using the LIVE/DEAD Baclight Bacterial Viability Kit (Invitrogen). After incubation at room temperature for 20 min, the compounds were removed by washing the cells with 0.7% NaCl. Finally, the cell suspensions were loaded onto 1.5% agarose pads and analyzed with a DeltaVision Elite microscope (Applied Precision).
# [9] = tested on: S. aureus LMG15975 (MRSA); format: cell-based, Staphylococcus aureus; conditions: LMG15975
# Description: as §1
# S. aureus LMG10147 = format: cell-based, Staphylococcus aureus; conditions: LMG10147
# Description: as §1
smiles,measurement,setting,value
C=C1NC(=O)[C@H]([C@@H](C)CC)NC(=O)C(NC(=O)C(=CC)NC(=O)[C@@H](N)[C@@H](C)CC)CSC[C@@H](C(=O)NC2C(=O)N[C@@H](C)C(=O)NCC(=O)N[C@H](C(=O)N[C@H](C(=O)NC3C(=O)NCC(=O)N[C@@H](C(C)C)C(=O)N[C@@H]([C@@H](C)CC)C(=O)N[C@@H](CCSC)C(=O)NC(=CC)C(=O)N[C@H](C(=O)N[C@@H](CCSC)C(=O)NC4CSC[C@@H](C(=O)N[C@@H](CCCCN)C(=O)O)NC(=O)CNC(=O)[C@H](CC(N)=O)NC4=O)CSC3C)[C@@H](C)CC)CSC2C)NC(=O)[C@H](CC(C)C)NC1=O (some centres unmarked) [rombocin A],membrane depolarization (DiSC3(5) fluorescence),L. lactis [1],significant membrane depolarization
same,effect of added lipid II on activity (growth curves),[2],reduced its activity
same,retained activity,"[3]; neutral pH, after 8 h of incubation",70%
same,reduction in activity,"[3]; pH 2, 4, 7, and 10 (adjusted with 1 M HCl or NaOH), up to 5.5 h",less than 20%
same,retained activity,"[3]; pH 2 and 4, after 8 h of incubation",more than 80%
same,MIC,E. faecium LMG11423,100 µg/mL
same,MIC,[4],100 µg/mL
same,binding to lipoteichoic acid (LTA),[5],utilizes electrostatic interactions to interact with the cell walls of target bacteria
same,binding to lipid II (effect of spotted lipid II on the inhibition halo),[6],reduction in the antimicrobial activity against L. lactis
same,MIC,[7],50 µg/mL
same,MIC,Bacillus cereus CH-85,25 µg/mL
same,membrane integrity (SYTO 9 / propidium iodide fluorescence),L. lactis [8],membrane disruption similar to nisin
same,MIC,[9],100 µg/mL
same,MIC,S. aureus LMG10147,100 µg/mL

# Reference: article PMC10804407, “Rombocin, a Short Stable Natural Nisin Variant, Displays Selective Antimicrobial Activity against Listeria monocytogenes and Employs a Dual Mode of Action to Kill Target Bacterial Strains” (ACS Synthetic Biology, 2024)
